Assay results taken from the supplement of paper PMC10307832.

Columns and labels:
Experiment in all cases: relative viability (nuclei count vs DMSO), 5 days (fraction); higher = more cells survive
BI-2536 + Pictilisib = compound: CC[C@@H]1C(=O)N(C)c2cnc(Nc3ccc(C(=O)NC4CCN(C)CC4)cc3OC)nc2N1C1CCCC1 [BI-2536] + CS(=O)(=O)N1CCN(Cc2cc3nc(-c4cccc5[nH]ncc45)nc(N4CCOCC4)c3s2)CC1 [Pictilisib] (partner 1 µM)
Outline: (§1)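 After 5 days of treatment, lung cancer cells in 1536-well plates were fixed and stained in a single step (final 0.05% Triton X-100, 1% formaldehyde, 1 ug/ml Hoechst) and their nuclei counted on 4× images. Treatment had been applied by pin tool the day after seeding as one drug alone or as a fixed anchor-drug dose with five library-drug doses (not always all listed) in √10 steps. Relative viability is the nuclei count of treated wells divided by that of vehicle wells, and values are medians of duplicate plates.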

BI-2536 + Vorinostat = compound: CC[C@@H]1C(=O)N(C)c2cnc(Nc3ccc(C(=O)NC4CCN(C)CC4)cc3OC)nc2N1C1CCCC1 [BI-2536] + O=C(CCCCCCC(=O)Nc1ccccc1)NO [Vorinostat] (partner 1 µM)
Outline: as §1

[1] = compound: CC1CC(=O)N(C2=CN=C(N=C2N1C3CCCC3)NC4=C(C=C(C=C4)C(=O)NC5CCN(CC5)C)OC)C [NPK76-II-72-1] + Nc1nc2[nH]cc(CCc3ccc(C(=O)N[C@@H](CCC(=O)O)C(=O)O)cc3)c2c(=O)[nH]1 [Pemetrexed] (partner 0.2 µM)
Outline: as §1

NPK76-II-72-1 + Olaparib = compound: CC1CC(=O)N(C2=CN=C(N=C2N1C3CCCC3)NC4=C(C=C(C=C4)C(=O)NC5CCN(CC5)C)OC)C [NPK76-II-72-1] + O=C(c1cc(Cc2n[nH]c(=O)c3ccccc23)ccc1F)N1CCN(C(=O)C2CC2)CC1 [Olaparib] (partner 8 µM)
Outline: as §1

Cell Line | relative viability (BI-2536 + Pictilisib; first compound 0.01 µM) | relative viability (BI-2536 + Pictilisib; first compound 0.03162 µM) | relative viability (BI-2536 + Pictilisib; first compound 0.1 µM) | relative viability (BI-2536 + Pictilisib; first compound 0.3162 µM) | relative viability (BI-2536 + Pictilisib; first compound 1 µM) | relative viability (BI-2536 + Vorinostat; first compound 0.01 µM) | relative viability (BI-2536 + Vorinostat; first compound 0.03162 µM) | relative viability (BI-2536 + Vorinostat; first compound 0.1 µM) | relative viability (BI-2536 + Vorinostat; first compound 0.3162 µM) | relative viability (BI-2536 + Vorinostat; first compound 1 µM) | relative viability ([1]; first compound 0.01 µM) | relative viability ([1]; first compound 0.03162 µM) | relative viability ([1]; first compound 0.1 µM) | relative viability ([1]; first compound 0.3162 µM) | relative viability ([1]; first compound 1 µM) | relative viability (NPK76-II-72-1 + Olaparib; first compound 0.01 µM) | relative viability (NPK76-II-72-1 + Olaparib; first compound 0.03162 µM) | relative viability (NPK76-II-72-1 + Olaparib; first compound 0.1 µM) | relative viability (NPK76-II-72-1 + Olaparib; first compound 0.3162 µM) | relative viability (NPK76-II-72-1 + Olaparib; first compound 1 µM)
NCI-H2228 | 0.39 | 0.374 | 0.218 | 0.13 | 0.165 | 0.823 | 0.468 | 0.106 | 0.134 | 0.0804 | 0.307 | 0.359 | 0.33 | 0.339 | 0.343 | 0.561 | 0.666 | 0.841 | 0.597 | 0.817
NCI-H2347 | 0.471 | 0.523 | 0.596 | 0.463 | 0.32 | 0.509 | 0.591 | 0.456 | 0.436 | 0.336 | 0.502 | 0.42 | 0.417 | 0.403 | 0.354 | 0.525 | 0.632 | 0.612 | 0.508 | 0.658
NCI-H2405 | 0.369 | 0.391 | 0.265 | 0.0965 | 0.201 | 0.981 | 0.608 | 0.35 | 0.278 | 0.337 | 1.04 | 1.01 | 0.956 | 1.08 | 1.06 | 0.861 | 0.888 | 0.908 | 0.858 | 0.88
NCI-H3122 | 0.55 | 0.555 | 0.153 | 0.23 | 0.201 | 0.928 | 0.779 | 0.179 | 0.149 | 0.151 | 0.209 | 0.191 | 0.181 | 0.195 | 0.209 | 0.6 | 0.6 | 0.722 | 0.653 | 0.589
PC-3 [JPC-3] | 0.682 | 0.769 | 0.441 | 0.268 | 0.291 | 0.857 | 0.677 | 0.416 | 0.306 | 0.291 | 0.963 | – | 1.06 | 1.18 | 1.1 | 1.12 | – | 1.09 | 1.09 | 1.2
PC-14 | 0.688 | 0.563 | 0.156 | 0.0423 | 0.0236 | 0.809 | 0.387 | 0.0698 | 0.0322 | 0.0218 | 0.124 | 0.126 | 0.125 | 0.123 | 0.162 | 0.295 | 0.377 | 0.384 | 0.267 | 0.32
RERF-LC-KJ | 0.565 | 0.48 | 0.249 | 0.145 | 0.206 | 0.731 | 0.531 | 0.348 | 0.224 | 0.255 | 0.469 | 0.505 | 0.46 | 0.439 | 0.506 | 0.903 | 0.914 | 0.908 | 0.901 | 0.905
SK-LU-1 | 0.499 | 0.62 | 0.42 | 0.201 | 0.157 | 0.727 | 0.643 | 0.271 | 0.247 | 0.247 | 0.972 | 1.05 | 0.925 | 1.03 | 1.04 | 0.432 | 0.49 | 0.475 | 0.511 | 0.587
SK-MES-1 | 0.357 | 0.374 | 0.304 | 0.157 | 0.127 | 1.17 | 0.934 | 0.441 | 0.136 | 0.188 | 0.929 | 0.968 | 0.989 | 1.01 | 1.12 | 0.646 | 0.787 | 0.794 | 0.746 | 0.728
SW 1573 | 0.477 | 0.479 | 0.263 | 0.142 | 0.118 | 0.677 | 0.437 | 0.101 | 0.0801 | 0.113 | 0.751 | 0.829 | 0.821 | 0.849 | 0.824 | 0.437 | 0.625 | 0.495 | 0.488 | 0.473
